Experimental data reported in patent publication US11571418B2, “Platinum compounds that inhibit constitutive STAT3 signaling and induce cell cycle arrest and apoptosis of malignant cells” (H. LEE MOFFITT CANCER CENTER AND RESEARCH INSTITUTE, INC., priority 2011, dated 2023).

What was measured:
[1] = tested on: Cyclin D1; test: Cyclin D1 detection, in situ and Western blot; type: cell-based, mouse; conditions: NIH3T3/v-Src, 48 h
Procedure: FIGS. 8A and 8B. Inhibition of Cyclin D1 and Bcl-xL induction by PLATINUM-401. Viral Src-transformed fibroblasts (NIH3T3/v-Src) and human breast cancer cell line MDA-MB-435 that contain constitutively-activated Stat3 were treated with or without platinum complex for 48 h. Cells were processed for immunohistochemistry, or cell lysates were prepared from cells and subjected to 5% PAGE and Western blot analysis, as indicated in “Materials and Methods.” (FIG. 8A) Detection of Cyclin D1; (FIG. 8B) Detection of Bcl-xL. Positions of Cyclin D1 and Bcl-xL proteins are shown. Beta-actin levels are shown for normalizing for equal total protein. Data are representative of 3 independent determinations.
Western blot—Whole-cell lysates were prepared in boiling sodium dodecyl sulfate (SDS) sample-loading buffer to extract total proteins from the cytoplasm and nucleus. Equivalent amounts of total cellular protein were electrophoresed on an SDS-10% polyacrylamide gel and transferred onto nitrocellulose membranes. Probing of nitrocellulose membranes with primary antibodies and detection of horseradish peroxidase-conjugated secondary antibodies by enhanced chemiluminescence (Amersham, Piscataway, N.J.) were performed as previously described (Garcia et al., 2001; Turkson et al., 2004b; Zhang et al., 2000). […]

[2] = tested on: MDA-MB-453; test: Cell cycle analysis by BrdU labeling and flow cytometry; type: cell-based, human; conditions: no constitutively-active Stat3
Procedure: (§1) FIG. 6. Analysis of relative cellular DNA content using BrdU labeling and flow cytometry. Relative DNA content of human breast cancer cell lines following treatment with or without PLATINUM-401 was analyzed by BrdU incorporation and flow cytometry. The population of cells determined from the relative DNA content is shown in each panel for each treatment condition. Results are the representative of 3 independent determinations.
(§2) Cell proliferation and TUNEL assays—Proliferating cells were first treated with or without PLATINUM-401 for up to 48 h. A portion of cells were harvested for BrdU incorporation following the manufacturer's (BD Biosciences Pharmingen, San Diego, Calif.) instructions and analyzed by flow cytometry. Harvested cells were also analyzed for apoptosis via detection of TdT-mediated dUTP nick-end labeling (TUNEL) assay using Apoptosis Detection Systems Fluorescein according to the manufacturer's (Roche, Indianapolis, Ind.) instructions. Oligonucleotides and plasmids Transfections. The Stat3 antisense (5′-[…]-3′) (SEQ ID NO:3) or control mismatch oligonucleotides (5′-[…]-3′) (SEQ ID NO:4) were synthesized using phosphorothioate chemistry and were synthesized with 2′-Omethoxyethyl modification of the five terminal nucleotides (underlined; (Mora et al., 2002; Karras et al., 2000)) to increase stability. Transfections of Stat3AS and plasmids were carried out with Lipofectamine 2000 (LF) according to the manufacturer's instructions (Invitrogen, Carlsbad, Calif.). Briefly, cells were seeded at 1-2×10^6 cells/10-cm tissue-culture plates 18 h before transfection. Immediately before transfection, cells were washed once with PBS. Cells were transfected with luciferase reporters (4 μg) in the presence or absence of v-Src (4 μg), or were transfected with Stat3β (4 μg) or pRC/CMV Stat3 Flag (4 μg). […]
(§3) The inventors further examined the biological effects of PLATINUM-401 and determined whether any changes might correlate with the inhibition of constitutively-active Stat3. […]

[3] = tested on: MDA-MB-231; test: as above; type: cell-based, human
Procedure: as §1, §2, §3

[4] = tested on: pLucSRE; test: c-fos promoter-driven luciferase reporter assay; type: cell-based; conditions: transient transfection in mouse fibroblasts
Procedure: FIGS. 3A-3D. Inhibition of Stat3-mediated gene expression by PLATINUM-401. (FIG. 3A) and (FIG. 3B) v-Src-transformed mouse fibroblasts that stably express Stat3-dependent (NIH3T3/v-Src/pLucTKS3) and Stat3-independent (NIH3T3/v-Src/pRLSRE) luciferase reporters or β-galactosidase (β-gal), as well as normal mouse fibroblast (NIH3T3) transiently transfected with pLucTKS3, pGL2-VEGF-Luc, NFkB-Luc or pLucSRE together with or without v-Src were treated with or without PLATINUM-401 for 48 h. Cytosolic extracts were then prepared from cells for luciferase and […] activities measurements. […]
Cell proliferation and TUNEL assays—Proliferating cells were first treated with or without PLATINUM-401 for up to 48 h. A portion of cells were harvested for BrdU incorporation following the manufacturer's (BD Biosciences Pharmingen, San Diego, Calif.) instructions and analyzed by flow cytometry. Harvested cells were also analyzed for apoptosis via detection of TdT-mediated dUTP nick-end labeling (TUNEL) assay using Apoptosis Detection Systems Fluorescein according to the manufacturer's (Roche, Indianapolis, Ind.) instructions. […]
To further investigate the activities of PLATINUM-401, the inventors treated malignant cells and measured effects on Stat3 signaling. […]

CC(O)CN1CCN(CC(C)O)CC1 (centres unmarked) [PLATINUM-401]
Cyclin D1 level [1]: significantly diminished
cell cycle profile [2]: no significant change
cell cycle change ([3]; BrdU, flow cytometry): arrested at G0/G1 phase
S phase cells ([3]; persists up to 48 h): significant decrease
induction of c-fos promoter-driven luciferase reporter activity [4]: no inhibitory effects
